The subject of experiment [1] is wildtype Wnt signaling cascade. The experiment is described as follows: HEK293 TOP assay (Super TopFlash luciferase reporter, Wnt-3a stimulated). Format: cell-based. As to conditions: Homo sapiens, HEK293, 16 h, HEK293 TOP reporter cells, Wnt3a at EC50, 16 hours. The procedure, abridged:
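Compound series (50 μM down to 15 nM, 3.16-fold) diluted from DMSO 50-fold into CAFTY buffer, pH 7.4, 2 mM Ca^2+, 0.01% BSA, applied to Wnt-3a-stimulated HEK293 TopFlash and FOP reporter lines in parallel. Cells seeded 10000/well 24 h before; luciferase signal measured.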

For experiment [2], the system named is HEK293 cells cotransfected with the FOP control vector. The experiment is described as follows: HEK293 FOP assay (control reporter with non-functional TCF elements). Format: cell-based. As to conditions: Homo sapiens, 16 hours. The procedure, abridged: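 Compound series from 50 μM down to 15 nM, prediluted in DMSO then 50-fold into CAFTY buffer (pH 7.4, 2 mM Ca2+, 0.01% BSA), tested alongside TOP cells on a Geneticin-selected HEK293 FOP line whose TCF elements are replaced by a random sequence; recombinant human Wnt-3a applied at 2500-5 ng/ml.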

Another experiment concerns the target T1, TNKS2 (Homo sapiens, UniProt Q9H2K2).
T1 construct: purchased BPS Bioscience, San Diego, USA 80572 (TNKS2 Histone Ribosylation Assay Kit)
T1 sequence (Q9H2K2 1-1166): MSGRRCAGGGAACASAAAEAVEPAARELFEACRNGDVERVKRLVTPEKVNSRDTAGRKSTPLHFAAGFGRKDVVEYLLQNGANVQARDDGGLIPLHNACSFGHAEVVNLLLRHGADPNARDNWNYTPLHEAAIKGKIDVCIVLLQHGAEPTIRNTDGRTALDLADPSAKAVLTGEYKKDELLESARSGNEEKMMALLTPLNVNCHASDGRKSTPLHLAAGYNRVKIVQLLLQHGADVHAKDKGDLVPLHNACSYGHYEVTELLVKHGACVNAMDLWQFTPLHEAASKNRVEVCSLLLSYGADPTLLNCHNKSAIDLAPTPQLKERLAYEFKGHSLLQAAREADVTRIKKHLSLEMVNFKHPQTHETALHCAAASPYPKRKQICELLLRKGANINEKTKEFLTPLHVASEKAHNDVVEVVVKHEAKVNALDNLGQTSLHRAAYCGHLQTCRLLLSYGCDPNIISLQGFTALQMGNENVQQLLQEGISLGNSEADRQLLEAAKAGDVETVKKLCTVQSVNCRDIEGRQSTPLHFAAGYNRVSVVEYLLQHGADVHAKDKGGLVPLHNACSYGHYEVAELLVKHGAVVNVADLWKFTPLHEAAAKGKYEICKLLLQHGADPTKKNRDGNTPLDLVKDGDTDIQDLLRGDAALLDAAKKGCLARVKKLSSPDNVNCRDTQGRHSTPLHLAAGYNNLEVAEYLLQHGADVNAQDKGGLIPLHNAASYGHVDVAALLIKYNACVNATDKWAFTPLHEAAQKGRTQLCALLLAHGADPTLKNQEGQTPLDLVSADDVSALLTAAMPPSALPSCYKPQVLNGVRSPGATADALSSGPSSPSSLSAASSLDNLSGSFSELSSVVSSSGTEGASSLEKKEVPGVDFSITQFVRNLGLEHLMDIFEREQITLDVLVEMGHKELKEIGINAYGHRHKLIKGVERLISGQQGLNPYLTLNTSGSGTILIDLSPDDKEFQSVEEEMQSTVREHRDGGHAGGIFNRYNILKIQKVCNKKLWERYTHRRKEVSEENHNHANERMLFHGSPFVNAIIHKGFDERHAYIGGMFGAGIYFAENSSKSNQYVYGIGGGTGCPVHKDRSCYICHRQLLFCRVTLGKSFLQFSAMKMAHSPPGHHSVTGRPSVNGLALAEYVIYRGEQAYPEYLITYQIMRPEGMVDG
The experiment can be described thus: TNKS2 Assay B (auto-parsylation, [3H]-NAD+ SPA). Format: biochemical. The settings on record: 6 nM TNKS2, auto-parsylation, over night at room temperature.

Each structure is given as a SMILES string.

Turning to `CNC(=O)c1[nH]cnc1C(=O)N[C@@H]1CC[C@@H](C(=O)Nc2ccc(F)cc2Cl)C[C@@H]1F` (racemic) [Example 31, N^4-{(1α,2α,4β)-4-[(2-chloro-4-fluorophenyl)carbamoyl]-2-fluorocyclohexyl}-N^5-methyl-1H-imidazole-4,5-dicarboxamide], the values for the IC50 (in experiment [1]; in experiment [2]; on TNKS2) were 250 nM, not below 50 µM and 120 nM, respectively.

For the compound `CNC(=O)c1[nH]cnc1C(=O)N[C@@H]1CC[C@@H](C(=O)Nc2ccc(F)cc2Cl)C[C@H]1OC` (racemic) [Example 35, N^4-{(1α,2β,4β)-4-[(2-chloro-4-fluorophenyl)carbamoyl]-2-methoxycyclohexyl}-N^5-methyl-1H-imidazole-4,5-dicarboxamide], the half-maximal inhibitory concentration (IC50) was 17000 nM in experiment [1], not below 50 µM in experiment [2] and more than 10000 nM at TNKS2.

For the compound `CNC(=O)c1[nH]cnc1C(=O)N[C@H]1CC[C@H](C(=O)Nc2ccc(F)cc2Cl)CC1(F)F` (single isomer, unassigned) [Example 33, N^4-{(trans)-4-[(2-chloro-4-fluorophenyl)carbamoyl]-2,2-difluorocyclohexyl}-N^5-methyl-1H-imidazole-4,5-dicarboxamide], the IC50 in experiment [1] is 700 nM; in experiment [2] it was not below 50 µM; against TNKS2, 380 nM.

Consider `CNC(=O)c1[nH]cnc1C(=O)NC1CCC(C(=O)Nc2ccc(F)cc2Cl)CC1C` (single isomer, unassigned) [Example 41, N^4-{4-[(2-chloro-4-fluorophenyl)carbamoyl]-2-methylcyclohexyl}-N^5-methyl-1H-imidazole-4,5-dicarboxamide], for which the IC50 is 21000 nM in experiment [1], not below 50 µM in experiment [2] and more than 10000 nM against TNKS2.

With `O=C(NC1CCC(F)(C(=O)Nc2ccc(F)cc2Cl)CC1)c1cnn2cccnc12` (single isomer, unassigned) [Example 365, N-{4-[(2-chloro-4-fluorophenyl)carbamoyl]-4-fluorocyclohexyl}pyrazolo[1,5-a]pyrimidine-3-carboxamide (single isomer)], the IC50 in experiment [1] was 21000 nM; in experiment [2] it was 35 µM; at TNKS2 it was more than 10000 nM.

In the case of `CNC(=O)c1[nH]cnc1C(=O)NC1CCC(F)(C(=O)Nc2ccc(F)cc2Cl)CC1` (single isomer, unassigned) [Example 366, N^4-{4-[(2-chloro-4-fluorophenyl)carbamoyl]-4-fluorocyclohexyl}-N^5-methyl-1H-imidazole-4,5-dicarboxamide (single isomer)], the values for the IC50 (in experiment [1]; in experiment [2]; at TNKS2) were 25000 nM, not below 50 µM and more than 10000 nM, respectively.

Regarding `CNC(=O)c1[nH]cnc1C(=O)N[C@@H]1CC[C@@H](C(=O)Nc2ccc(F)cc2Cl)CC1(F)F` (stereo in doubt) [Example 32, N^4-{(trans)-4-[(2-chloro-4-fluorophenyl)carbamoyl]-2,2-difluorocyclohexyl}-N^5-methyl-1H-imidazole-4,5-dicarboxamide], the results for the IC50 (in experiment [1]; in experiment [2]; against TNKS2) were 270 nM, not below 50 µM and 280 nM, respectively.

Consider `O=C(NCC1CCCO1)c1nc[nH]c1C(=O)N[C@H]1CC[C@H](C(=O)Nc2c(F)cc(F)cc2Cl)CC1` (stereo in doubt) [Example 71, N^5-{trans-4-[(2-chloro-4,6-difluorophenyl)carbamoyl]cyclohexyl}-N^4-[(2R)-tetrahydrofuran-2-ylmethyl]-1H-imidazole-4,5-dicarboxamide], for which the IC50 in experiment [1] was found to be 100 nM; in experiment [2], 23 µM; at TNKS2 it was 66 nM.

Take `CNC(=O)c1nc[nH]c1C(=O)N[C@H]1CC[C@H](C(=O)Nc2ccc(F)cc2Cl)CC1` [Example 1, N^5-{trans-4-[(2-chloro-4-fluorophenyl)carbamoyl]cyclohexyl}-N^4-methyl-1H-imidazole-4,5-dicarboxamide]: the results for the IC50 (in experiment [1]; in experiment [2]; against TNKS2) were 52 nM, not below 50 µM and 72 nM, respectively.

On to `O=C(N[C@H]1CC[C@H](C(=O)Nc2ccc(F)cc2Cl)CC1)c1[nH]cnc1C(=O)N1CC2(CCS2(=O)=O)C1` [Example 22, N-{trans-4-[(2-chloro-4-fluorophenyl)carbamoyl]cyclohexyl}-4-[(1,1-dioxido-1-thia-6-azaspiro[3.3]hept-6-yl)carbonyl]-1H-imidazole-5-carboxamide], for which the IC50 was 24 nM in experiment [1], not below 50 µM in experiment [2] and 5.3 nM on TNKS2.

Regarding `O=C(N[C@H]1CC[C@H](C(=O)Nc2ccc(F)cc2Cl)CC1)c1[nH]cnc1C(=O)N1CCC1` [Example 23, 4-(azetidin-1-ylcarbonyl)-N-{trans-4-[(2-chloro-4-fluorophenyl)carbamoyl]cyclohexyl}-1H-imidazole-5-carboxamide], the IC50 is 110 nM in experiment [1], not below 50 µM in experiment [2] and 25 nM at TNKS2.

In the case of `COC1CN(C(=O)c2nc[nH]c2C(=O)N[C@H]2CC[C@H](C(=O)Nc3ccc(F)cc3Cl)CC2)C1` [Example 24, 4 N-{trans-4-[(2-chloro-4-fluorophenyl)carbamoyl]cyclohexyl}-4-[(3-methoxyazetidin-1-yl)carbonyl]-1H-imidazole-5-carboxamide], the IC50 in experiment [1] was 86 nM; in experiment [2] it was not below 50 µM; at TNKS2 it was 17 nM.

`O=C(NCCN1CC2(CCO2)C1)c1nc[nH]c1C(=O)N[C@H]1CC[C@H](C(=O)Nc2ccc(F)cc2Cl)CC1` [Example 25, N^5-{trans-4-[(2-chloro-4-fluorophenyl)carbamoyl]cyclohexyl}-N^4-[2-(1-oxa-6-azaspiro[3.3]hept-6-yl)ethyl]-1H-imidazole-4,5-dicarboxamide]: the IC50 in experiment [1] is 63 nM; in experiment [2], not below 50 µM; against TNKS2 it was 11 nM.

Regarding `CN(C)C1CN(C(=O)c2nc[nH]c2C(=O)N[C@H]2CC[C@H](C(=O)Nc3ccc(F)cc3Cl)CC2)C1` [Example 26, N-{trans-4-[(2-chloro-4-fluorophenyl)carbamoyl]cyclohexyl}-4-{[3-(dimethylamino)azetidin-1-yl]carbonyl}-1H-imidazole-5-carboxamide], the IC50 in experiment [1] is 140 nM; in experiment [2], not below 50 µM; on TNKS2 it was 80 nM.

Take `CNC(=O)c1nc[nH]c1C(=O)N[C@H]1CC[C@H](C(=O)Nc2c(Br)cc(F)c(F)c2F)CC1` [Example 27, N^5-{trans-4-[(6-bromo-2,3,4-trifluorophenyl)carbamoyl]cyclohexyl}-N^4-methyl-1H-imidazole-4,5-dicarboxamide]: the IC50 was 35 nM in experiment [1], not below 50 µM in experiment [2] and 19 nM against TNKS2.

For the compound `CNC(=O)c1nc[nH]c1C(=O)N[C@H]1CC[C@H](C(=O)Nc2c(F)cc(F)cc2Br)CC1` [Example 28, N^5-{trans-4-[(6-bromo-2,4-difluorophenyl)carbamoyl]cyclohexyl}-N^4-methyl-1H-imidazole-4,5-dicarboxamide], the IC50 in experiment [1] was 24 nM; in experiment [2] it was not below 50 µM; against TNKS2 it was 26 nM.

As for `CNC(=O)c1ncoc1C(=O)N[C@H]1CC[C@H](C(=O)Nc2ccc(F)cc2Cl)CC1` [Example 29, N^5-{trans-4-[(2-chloro-4-fluorophenyl)carbamoyl]cyclohexyl}-N^4-methyl-1,3-oxazole-4,5-dicarboxamide], the IC50 in experiment [1] is 930 nM; in experiment [2] it was not below 50 µM; at TNKS2 it was 590 nM.

Take `CNC(=O)c1ocnc1C(=O)N[C@H]1CC[C@H](C(=O)Nc2ccc(F)cc2Cl)CC1` [Example 30]: the figures for the IC50 (in experiment [1]; in experiment [2]; against TNKS2) were 44000 nM, 40 µM and more than 10000 nM, respectively.
